Test system: Herceptin
Test: spot phage ELISA against Herceptin (off-target)
Type: binding
Details: for SIGNAL: NOISE RATIO HERCEPTIN: spot phage ELISA signal against Herceptin over ELISA signal against BSA, Tables 3 and 4; for HERCEPTIN S/W: signal minus noise (BSA); for HERCEPTIN S/W / HERCEPTIN S/N: Table 5; for HERCEPTIN S/N: signal to noise ratio
Description: Phage pools of linear peptide libraries (Stanger, K. et al. Allosteric peptides bind a caspase zymogen and mediate caspase tetramerization. Nat Chem Biol 8, 655-660 (2012)) were cycled through rounds of binding selections with hFZD7 CRD-Fc following standard protocols (Tonikian et al. (2007) Nat Protoc 2, 1368-1386). Herceptin (10 μM) was included in sorting solution to block potential Fc binders during all rounds of sorting. After four rounds of binding selection, individual phage clones were analyzed in a high-throughput spot phage ELISA using plate-immobilized FZD7 CRD-Fc as target or off-target for specificity test (hFZD8 CRD-Fc and Herceptin). To measure off-target affinity, duplicate phage particle were assayed against BSA to measure non-specific binding. Clones with a phage-binding signal >0.5 and signal-to-noise ratio >10 were considered to be positive clones and were subjected to DNA sequence analysis. General data handling was done using Microsoft Excel 2010 unless otherwise noted.
In order to investigate the role of FZD7 in intestinal stem cell function, experiments were performed to identify ligands that selectively bind FZD7 CRD. A naïve linear peptide library (4-16 amino acids in length) and a cyclic peptide library were screened via phage display against FZD7 CRD-Fc. Peptides found to bind FZD7 CRD-Fc were then screened via spot phage ELISA against FZD7 CRD-Fc, FZD8 CRD-Fc, and Herceptin to identify candidates that bind FZD7 CRD but not FZD8 CRD or herceptin. The amino acid sequences of candidate FZD7 CRD-binding linear peptides are shown in Table 3 below, and the amino acid sequences of candidate FZD7 CRD-binding cyclic peptides are shown in Table 4.
Briefly, sixty Fz7-21-derived peptides (see Table 5), each containing at least one random alanine and/or valine/and/or aspartic acid and/or serine substitution, were generated and screened via spot phage ELISA (i.e., as described above) against FZD7 CRD-Fc and Herceptin.

Substance | SIGNAL: NOISE RATIO HERCEPTIN | HERCEPTIN S/W | HERCEPTIN S/N
2 (TYFDDICNLILPWANP) [compound 2] | 1.2 |  | 
55 (VAADALEFWCHVMY) [compound 55] |  | 0.0 | 1.3
87 (AAADDVASWCHVMY) [compound 87] |  | 0.0 | 1.3
14 (DTDLLQWCLWFT) [compound 14] | 1.2 |  | 
59 (AAADDLEAWCAVMY) [compound 59] |  | 0.0 | 1.2
77 (AASDDLAFWCHVMY) [compound 77] |  | 0.0 | 1.1
56 (APSDDLAAWCHVVY) [compound 56] |  | 0.0 | 1.2
73 (APSDDLAAWCHVMY) [compound 73] |  | 0.0 | 1.3
42 (APSDDVAFWCHVMY) [compound 42] |  | 0.0 | 1.6
22 (VFVPFSELTSLC) [compound 22] | 1.1 |  | 
98 (AAADDLAAWCHVVY) [compound 98] |  | 0.1 | 2.2
44 (APSDDLEFWCHVMY) [compound 44] |  | 0.0 | 1.3
88 (VAADDLAFWCDVMY) [compound 88] |  | 0.0 | 1.2
34 (HLSDVCCSDWCDLVFW) [compound 34] | 0.99 |  | 
53 (LPSDDLESWCHVMY) [compound 53] |  | 0.0 | 1.2
97 (APSDDLAFWCHVVY) [compound 97] |  | 0.1 | 2.1
85 (PPADDLAFWCDVMY) [compound 85] |  | 0.0 | 1.1
37 (FDFCSVMPHFIYCPGD) [compound 37] | 1.10 |  | 
35 (TSDFSWCLSWCDLIFW) [compound 35] | 1.19 |  | 
90 (APADDLAFWCDVMY) [compound 90] |  | 0.0 | 0.9
39 (VAADDLAAWCHVMY) [compound 39] |  | 0.0 | 1.4
68 (VPSDDLASWCHVMY) [compound 68] |  | 0.0 | 1.4
83 (VPSADLETWCHVMY) [compound 83] |  | 0.0 | 1.4
91 (APSDDLAFWCDVMY) [compound 91] |  | 0.0 | 0.7

Substance | SIGNAL: NOISE RATIO HERCEPTIN | HERCEPTIN S/W | HERCEPTIN S/N
49 (AASDDLAAWCHVMY) [compound 49] |  | 0.0 | 1.8
36 (FDFCTVMPHFIYCPGD) [compound 36] | 1.13 |  | 
51 (APADDLAFWCHVMY) [compound 51] |  | 0.0 | 1.3
66 (VPADALAVWCDVMY) [compound 66] |  | 0.0 | 1.3
60 (LAADDLESWCHVMY) [compound 60] |  | 0.0 | 1.2
75 (APSDDLEAWCDVMY) [compound 75] |  | 0.0 | 1.3
95 (VPSDDLEFWCAVMY) [compound 95] |  | 0.0 | 1.2
57 (AAADDLAAWCDVMY) [compound 57] |  | 0.0 | 1.4
12 (PPNVHEGCWSMFPW) [compound 12] | 1.1 |  | 
26 (FCENPYIICW) [compound 26] | 1.1 |  | 
4 (ACSYVIDLWNQCLT) [compound 4] | 1.1 |  | 
48 (AAADDLEFWCHVMY) [compound 48] |  | 0.0 | 1.2
29 (ERRVCYPWFEVSQP) [compound 29] | 1.3 |  | 
7 (FWMLLQEGFAFWFP) [compound 7] | 1.3 |  | 
71 (APSDDLASWCHVMY) [compound 71] |  | 0.0 | 1.1
6 (DTDLHQWCLWFT) [compound 6] | 1.1 |  | 
50 (AASDDLESWCHVMY) [compound 50] |  | 0.0 | 1.2
64 (APADDLEFWCHVVY) [compound 64] |  | 0.0 | 1.4
93 (AAADDLAFWCDVMY) [compound 93] |  | -0.2 | 0.4
62 (VASDDLASWCHAMY) [compound 62] |  | 0.0 | 1.3
81 (LASDDLEFWCHVMY) [compound 81] |  | 0.0 | 1.2
72 (APADDLEFWCHVMY) [compound 72] |  | 0.0 | 1.2
47 (VASDDLEAWCHVMY) [compound 47] |  | 0.0 | 1.4
38 (HLSDVFCSDWCDLVFW) [compound 38] | 1.14 |  | 

Substance | SIGNAL: NOISE RATIO HERCEPTIN | HERCEPTIN S/W | HERCEPTIN S/N
63 (VPADDLASWCHVMY) [compound 63] |  | 0.0 | 1.2
10 (ASELHDWCRMMFPW) [compound 10] | 1.2 |  | 
89 (APADDLEFWCHAMY) [compound 89] |  | 0.0 | 1.4
8 (FELLLDLGDLIRLW) [compound 8] | 1.8 |  | 
3 (PQDLLDWCHYMIVSSD) [compound 3] | 1.2 |  | 
17 (GDFWPGSLLWEILV) [compound 17] | 1.2 |  | 
46 (APSDDLEFWCHAMY) [compound 46] |  | 0.0 | 1.3
20 (FLPDQHSHLFLPWGEP) [compound 20] | 1.1 |  | 
74 (APADDLAFWCHVVY) [compound 74] |  | 0.0 | 1.3
9 (ACSYVIDLWNLCLR) [compound 9] | 1.3 |  | 
80 (AAADDLAFWCHVMY) [compound 80] |  | 0.0 | 1.4
67 (VPADDLAFWCHVMY) [compound 67] |  | 0.0 | 1.3
84 (LPADDLAAWCHVMY) [compound 84] |  | 0.0 | 1.4
25 (EHDLLLRAMNSFVLIF) [compound 25] | 1.4 |  | 
65 (VPSDDLAFWCHVMY) [compound 65] |  | 0.0 | 1.3
31 (FWFDFWFG) [compound 31] | 4.1 |  | 
76 (VPSDDLEAWCDVMY) [compound 76] |  | 0.0 | 1.3
58 (VASDDLEFWCHVMY) [compound 58] |  | 0.0 | 1.3
24 (NAFWRDQCLEWFIICL) [compound 24] | 1.2 |  | 
86 (VASDDLASWCHVVY) [compound 86] |  | 0.0 | 1.2
78 (VPADDLASWCDVMY) [compound 78] |  | 0.1 | 1.9
69 (VPSADLESWCHVMY) [compound 69] |  | 0.0 | 1.6
45 (APADDLEAWCHVMY) [compound 45] |  | 0.0 | 1.2

— patent US20190359653A1, “SELECTIVE PEPTIDE INHIBITORS OF FRIZZLED” (Genentech, Inc., priority 2016, published 2019)
